# Measured values reported in patent US10576097B2, “URLC10-derived peptide and vaccine containing same” (ONCOTHERAPY SCIENCE, INC., priority 2014, dated 2020).
# What was measured:
# peptide-pulsed C1R-A11 = experiment: In vitro CTL induction, IFN-gamma ELISPOT assay (HLA-A*1101); format: cell-based, human; conditions: CTLs induced from HLA-A*1101-positive donors, against peptide-pulsed C1R-A11, compared with control
# Source text: (§1) Monocyte-derived dendritic cells (DCs) were used as the antigen-presenting cell to induce a cytotoxic T lymphocyte (CTL) response against peptides presented on human leukocyte antigens (HLAs). As described in the other sections, DCs were generated in vitro (Nakahara S et al., Cancer Res 2003, 63(14): 4112-8). Specifically, peripheral-blood mononuclear cells isolated from healthy volunteers (HLA-A*1101-positive) with the Ficoll-Paque plus solution (Pharmacia) were separated by attaching to plastic tissue culture dishes (Becton Dickinson) and concentrated as a monocyte fraction. The monocyte-concentrated population was cultured in the presence of 1000 IU/ml granulocyte macrophage colony-stimulating factor (R&D System) and 1000 IU/ml interleukin(IL)-4 (R&D System) in an AIM-V medium (Invitrogen) containing 2% heat-inactivated autologous serum (AS). After seven days of culturing, the cytokine-induced DCs were pulsed with 20 micro-g/ml each of the synthesized peptides in an AIM-V medium at 37 degrees C. for three hours in the presence of 3 micro-g/ml beta 2-microglobulin. The generated cells appeared to express on their cell surface DC-associated molecules such as CD80, CD83, CD86 and HLA class II (data not shown). Next, these peptide-pulsed DCs were inactivated by X-ray irradiation (20 Gy), and mixed in a 1:20 ratio with autologous CD8^+ T cells obtained by positive selection using the CD8 Positive Isolation Kit (Dynal). These culture products were seeded in a 48-well plate (Corning). Each well was made to contain 1.5×10^4 peptide-pulsed DCs, 3×10^5 CD8^+ T cells and 10 ng/ml IL-7 (R&D System) in 0.5 ml of the AIM-V/2% AS medium. Three days later, these culture products were added with a final concentration of 20 IU/ml IL-2 (CHIRON). On day 7 and day 14, T cells were further stimulated with peptide-pulsed autologous DCs. The DCs were prepared every time by the same method as above. On day 21, after the third peptide stimulation, CTLs were examined against the peptide-pulsed C1R-A11 by a human interferon (IFN)-gamma enzyme-linked immunospot (ELISPOT) assay (Tanaka H et al., Br J Cancer 2001, 84(1): 94-9; Umano Y et al., Br J Cancer 2001, 84(8): 1052-7; Uchida N et al., Clin Cancer Res 2004, 10(24): 8577-86; Suda T et al., Cancer Sci 2006, 97(5): 411-9; Watanabe T et al., Cancer Sci 2005, 96(8): 498-506).
# (§2) To examine specific CTL activity, an IFN-gamma ELISPOT assay and an IFN-gamma enzyme-linked immunosorbent assay (ELISA) were performed. Specifically, peptide-pulsed C1R-A11 (1×10^4 cells/well) was prepared as the stimulator cell. The induced CTLs, i.e., CTL lines and CTL clones, were used as the responder cell. The IFN-gamma ELISPOT assay and IFN-gamma ELISA were performed according to the manufacturer's manual.
# [1] = tested on: COS7 cells transfected with both full-length URLC10 and the HLA-A*1101 gene; experiment: Specific CTL activity against target cells expressing URLC10 and HLA-A*1101; format: cell-based, African green monkey
# Source text: (§3) A cDNA encoding the open-reading frame of a target gene or HLA-A*1101 was amplified by PCR. The PCR-amplified product was cloned into an expression vector. Either or both of the target gene-expressing vector and the HLA-A*1101-expressing vector were transfected into COS7, which is a cell line negative for the target gene and HLA, using Lipofectamine 2000 (Invitrogen) following the manufacturer's recommended protocol. Two days after transfection, the transfected cells were harvested using versene (Invitrogen), and used as the target cell for CTL activity assay (5×10^4 cells/well).
# (§4) The CTL clone established against URLC10-A11-10-132 (SEQ ID NO: 13) was investigated for its ability to recognize target cells expressing URLC10 and the HLA-A*1101 molecule. COS7 cells transfected with both full-length URLC10 and the HLA-A*1101 gene (a specific model of target cells expressing URLC10 and the HLA-A*1101 gene) were prepared as the target cell. COS7 cells transfected with either full-length URLC10 or HLA-A*1101 were prepared as the control.
# [2] = tested on: peptide-pulsed C1R-A11 cells; experiment: IFN-gamma ELISA of CTL lines and CTL clones (HLA-A*1101); format: cell-based, human
# Description: (§5) CTLs were propagated in culture using methods similar to those disclosed by Riddell et al. (Walter E A et al., N Engl J Med 1995, 333(16): 1038-44; Riddell S R et al., Nat Med 1996, 2(2): 216-23). The CTLs were co-cultured in a total of 25 ml AIM-V medium containing 5% AS (AIM-V/5% AS) and 40 ng/ml anti-CD3 antibody with two types of Mitomycin C-treated human B lymphoblastoid cell lines at 5×10^6 cells/flask. One day after beginning of the culturing, 120 IU/ml IL-2 was added to the culture. On days 5, 8 and 11, a fresh AIM-V/5% AS medium containing 30 IU/ml IL-2 was added to the culture (Tanaka H et al., Br J Cancer 2001, 84(1): 94-9; Umano Y et al., Br J Cancer 2001, 84(8): 1052-7; Uchida N et al., Clin Cancer Res 2004, 10(24): 8577-86; Suda T et al., Cancer Sci 2006, 97(5): 411-9; Watanabe T et al., Cancer Sci 2005, 96(8): 498-506).
# Dilution of CTLs was carried out to make 0.3, 1 and 3 cells/well in 96 round-bottomed microtiter plates (Nalge Nunc International). The CTLs were co-cultured with two types of Mitomycin C-treated human B lymphoblastoid cell lines at 1×10^4 cells/well in a total of 150 micro-l/well AIM-V/5% AS medium with 30 ng/ml anti-CD3 antibody and 125 IU/ml IL-2. Ten days later, IL-2 was added to the medium at 50 micro-1/well to reach a final concentration of 125 IU/ml. […]
# peptide-pulsed C1R-A03 = experiment: In vitro CTL induction, IFN-gamma ELISPOT assay (HLA-A*0301); format: cell-based, human; conditions: CTLs induced from HLA-A*0301-positive donors, against peptide-pulsed C1R-A03, compared with control
# Source text: as §1, with “(HLA-A*0301-positive)” for “(HLA-A*1101-positive)”, “C1R-A03” for “C1R-A11”
# as §2, with “C1R-A03” for “C1R-A11”
# [3] = tested on: C1R-A03 cells pulsed with the respective peptide; experiment: IFN-gamma ELISA of CTL lines and CTL clones (HLA-A*0301); format: cell-based, human
# Description: as §5
# Dilution of CTLs was carried out to make 1 and 10 cells/well in 96 round-bottomed microtiter plates (Nalge Nunc International). The CTLs were co-cultured with two types of Mitomycin C-treated human B lymphoblastoid cell lines at 1×10^4 cells/well in a total of 150 micro-l/well 5% AS-containing AIM-V (AIM-V/5% AS) medium with 30 ng/ml anti-CD3 antibody and 125 IU/ml IL-2. Ten days later, IL-2 was added to the medium at 50 micro-l/well to reach a final concentration of 125 IU/ml. On day 14, the CTL activity was tested, and the CTL clones were propagated using the same method as described above (Uchida N et al., Clin Cancer Res 2004, 10(24): 8577-86; Suda T et al., Cancer Sci 2006, 97(5): 411-9; Watanabe T et al., Cancer Sci 2005, 96(8): 498-506).
# as §2, with “C1R-A03” for “C1R-A11”
# [4] = tested on: COS7 cells transfected with both full-length URLC10 and the HLA-A*0301 gene; experiment: Specific CTL activity against target cells expressing URLC10 and HLA-A*0301; format: cell-based, African green monkey
# Source text: as §3, with “HLA-A*0301” for “HLA-A*1101”, “HLA-A*0301-expressing” for “HLA-A*1101-expressing”, “[…],” for “COS7,”
# as §4, with “URLC10-A03-11-131” for “URLC10-A11-10-132”, “31)” for “13)”, “HLA-A*0301” for “HLA-A*1101”
# [5] = CTL line against peptide-pulsed versus non-pulsed target cells
sequence,measurement,setting,value
"IFPRFFMVAK (a peptide derived from URLC10) [SEQ ID NO 13, URLC10-derived 10mer peptide, start position 132]",peptide-specific CTL activity (IFN-gamma production),peptide-pulsed C1R-A11,potent IFN-gamma production
same,CTL activity of peptide-stimulated CTL clone against control cells,[1]; COS7 cells transfected with either full-length URLC10 or HLA-A*1101,significant specific CTL activity was not detected
same,CTL activity of peptide-stimulated CTL clone,[1]; against COS7 cells expressing both URLC10 and HLA-A*1101,potent CTL activity
same,IFN-gamma production of CTL clone,"[2]; CTL clone by limiting dilution, against peptide-pulsed C1R-A11 cells",Potent IFN-gamma production
same,IFN-gamma production of CTL line,[2]; [5],potent IFN-gamma production
"KIFPRFFMVAK (a peptide derived from URLC10) [SEQ ID NO 31, URLC10-derived 11mer peptide, start position 131]",peptide-specific CTL activity (IFN-gamma production),peptide-pulsed C1R-A03,potent IFN-gamma production
same,IFN-gamma production of CTL clone,"[3]; CTL clone by limiting dilution, against peptide-pulsed C1R-A03 cells",Potent IFN-gamma production
same,IFN-gamma production of CTL line,[3]; [5],potent IFN-gamma production
same,CTL activity of peptide-stimulated CTL clone against control cells,[4]; COS7 cells transfected with either full-length URLC10 or HLA-A*0301,significant specific CTL activity was not detected
same,CTL activity of peptide-stimulated CTL clone,[4]; against COS7 cells expressing both URLC10 and HLA-A*0301,potent CTL activity
